Test results taken from patent publication US20210115401A1, “Methods and Materials for the Generation of Regulatory T Cells” (LIFE TECHNLOGIES AS, priority 2006, published 2021).

Tested on: CD4+ T cells
Assay: Surface marker (CD4, CD25, CXCR3) and intracellular FOXP3 analysis of expanded CD4+ T cells
Format: cell-based
Description: 1) Isolate CD4+ T cells from peripheral blood or leukopheresis products by the use of Dynal® CD4 Positive isolation kit, Dynal® CD4 Negative Isolation kit, Dynabeads® MyPure™ CD4 T cell kit, or CD4 Microbeads MACS®.
2) Stimulate 1.5×10^6 CD4+ T cells with anti-CD3/CD28 Dynabeads (3:1 bead: T cell ratio) in X-vivo medium with 1000 U/ml IL-4 (optional), 20 U/ml IL-2 and 1 μM final concentration of Rapamycin. Total medium volume should be 1.5 ml per 1.5×10^6 CD4+ T cells in a 24 well plate. The protocol can be scaled up.
3) On day 2, add a 10× concentrate that contains 10,000 U/ml IL-4 (optional) and […]. Add this in a volume that is 10% of the initial culture volume.
4) On day 4, add the cytokine concentrate similar to day 2.
5) On day 6, add the 10× cytokine concentrate again and take an aliquot to count the cells. This is the first time that the culture should be disturbed. Based on the count adjust the cell concentration to 1×10^6 CD4 cell/ml. Split wells and add culture medium containing Rapamycin, 1000 U/ml IL-4 (optional), 20 U/ml IL-2 to maintain cell concentration at 0.5×10^6 cells/ml.
6) From day 7 to day 12 count the cells daily. Split wells and add culture medium containing Rapamycin, 1000 U/ml IL-4 (optional), 20 U/ml IL-2 to maintain the cell concentration at 0.5×10^6 cells/ml. On day 12 the beads are removed using a magnet.
7) On day 14-15 the cells can be analyzed for surface marker expression and functional properties.
CD4+ T cells were isolated from peripheral blood by negative and/or positive isolation as described in Example 1. After expansion with IL-2, +/−IL-4, CD3/CD28 Dynabeads®, with or without Rapamycin the expanded cells were analyzed for various surface markers (CD4, CD25, CD62L, CRTh2, CCR4, CXCR3, CCR7) and for intracellular FOXP3 expression and cytokine secretion. Suppressive capacity was analyzed in standard functional assays as described below.

`CO[C@H]1C[C@@H]2CC[C@@H](C)[C@@](O)(O2)C(=O)C(=O)N2CCCC[C@H]2C(=O)O[C@H]([C@H](C)C[C@@H]2CC[C@@H](O)[C@H](OC)C2)CC(=O)[C@H](C)/C=C(\C)[C@@H](O)[C@@H](OC)C(=O)[C@H](C)C[C@H](C)/C=C/C=C/C=C/1C` [Rapamycin] was tested, and the “expanded cells expressing high levels of CD25” value (CD4+ T cells expanded with CD3/CD28 Dynabeads, IL-2, +/−IL-4 and Rapamycin) was “Approximately 70%”, the “CD4+CD25+ T cells among expanded cells (flow cytometry, FIG. 2)” value (CD4+ T cells expanded with rapamycin, 20% in the absence of rapamycin) was 80% and the “cells expressing FOXP3 after expansion” value (after expansion with or without Rapamycin, freshly isolated CD4+ T cells 10%) was 10%.
